According to ChEMBL document CHEMBL3870307, “5-HT7 receptor modulators: Amino groups attached to biphenyl scaffold determine functional activity” (Eur J Med Chem, 2016):
The source made the active and inactive calls. The calls are words filed in the database; no cut-off is given here.

Legend:
[1] = target: T1, 5-hydroxytryptamine receptor 7 (Homo sapiens, UniProt P34969); test: Displacement of [3H]D-lysergic acid diethylamide from 5HT7R (unknown origin) expressed in HEK293 cell membranes incubated for 1.5 hrs in absence of light by liquid scintillation counting
T1 sequence (P34969 whole entry): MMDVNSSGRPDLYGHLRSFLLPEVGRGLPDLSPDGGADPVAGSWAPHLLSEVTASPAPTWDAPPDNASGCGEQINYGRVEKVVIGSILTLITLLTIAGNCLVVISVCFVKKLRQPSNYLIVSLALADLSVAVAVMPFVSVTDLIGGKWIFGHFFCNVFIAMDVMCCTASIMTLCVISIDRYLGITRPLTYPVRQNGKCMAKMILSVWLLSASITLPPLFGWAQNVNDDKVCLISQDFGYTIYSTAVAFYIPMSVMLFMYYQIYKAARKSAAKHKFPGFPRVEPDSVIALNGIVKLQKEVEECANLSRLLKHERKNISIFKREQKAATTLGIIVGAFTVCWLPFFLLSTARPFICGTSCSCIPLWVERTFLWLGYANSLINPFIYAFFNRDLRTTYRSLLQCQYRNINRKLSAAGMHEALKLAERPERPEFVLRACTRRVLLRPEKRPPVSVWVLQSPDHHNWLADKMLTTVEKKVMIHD

[2] = target: T1, 5-hydroxytryptamine receptor 7; test: Antagonist activity at human 5-HT7R expressed in HEK293 cells assessed as inhibition of serotonin stimulated cAMP levels at 10 uM preincubated for 10 mins followed by serotonin stimulation after 30 mins by D2-dye based fluorescence assay; type: functional, cell-based
[3] = target: T1, 5-hydroxytryptamine receptor 7; test: Agonist activity at human 5-HT7R expressed in HEK293 cells assessed as induction of cAMP levels at 10 uM treated for 10 mins measured after 30 mins by D2-dye based fluorescence assay relative to serotonin; type: functional, cell-based
[4] = target: T1, 5-hydroxytryptamine receptor 7; test: Antagonist activity at human 5-HT7R expressed in HEK293 cells assessed as inhibition of serotonin stimulated-cAMP levels preincubated for 10 mins followed by serotonin stimulation after 30 mins by D2-dye based fluorescence assay; type: functional, cell-based
[5] = target: T1, 5-hydroxytryptamine receptor 7; test: Antagonist activity at human 5-HT7R expressed in HEK293 cells assessed as inhibition of serotonin stimulated-cAMP levels at 100 uM preincubated for 10 mins followed by serotonin stimulation after 30 mins by D2-dye based fluorescence assay; type: functional, cell-based
[6] = target: T1, 5-hydroxytryptamine receptor 7; test: Displacement of [3H]D-lysergic acid diethylamide from 5HT7R (unknown origin) expressed in CHO-K1 cell membranes incubated for 1.5 hrs in absence of light by liquid scintillation counting
[7] = target: T1, 5-hydroxytryptamine receptor 7; test: Agonist activity at human 5-HT7R expressed in HEK293 cells assessed as induction of cAMP levels treated for 10 mins measured after 30 mins by D2-dye based fluorescence assay; type: functional, cell-based

| SMILES | Ki [1] [nM] | Imax [2] [%] | Emax [3] [%] | IC50 [4] [nM] | inhibition [5] | Ki [6] [nM] | EC50 [7] [nM] |
| --- | --- | --- | --- | --- | --- | --- | --- |
| COc1ccccc1-c1cc(CN2CCC(C)CC2)ccc1Cl | 389 | 52.3 | -14.4 | – | – | – | – |
| COc1ccccc1-c1cc(CN2CCC(C)CC2)ccc1C | 1120 | 29 | 2.53 | – | – | – | – |
| COc1ccccc1-c1cc(CN(C)C)ccc1Cl | 18 | 10.3 | 27.6 | – | – | – | – |
| CNCc1ccc(OC)c(-c2ccccc2OC)c1 | 648 | 2.25 | 11 | – | – | – | – |
| COc1ccccc1-c1cc(CN(C)C)ccc1OC | 1020 | 4.54 | 28.8 | – | – | – | – |
| COc1ccccc1-c1cc(CN2CCN(c3ccccc3OC)CC2)cc2c1OCO2 | 34 | 93.7 | -1.56 | 19800 | Active | – | – |
| CC1CCN(CC[C@H]2CCCN2S(=O)(=O)c2cccc(O)c2)CC1 | – | 100 | – | – | – | – | – |
| COc1ccccc1-c1cc(CN2CCC(C)CC2)cc2c1OCO2 | 691 | 15.6 | 7.6 | – | – | – | – |
| COc1ccccc1-c1cc(CN(C)C)ccc1C | 23 | 6.61 | 33.3 | – | – | – | – |
| COc1ccccc1-c1cc(CN2CCC(C)CC2)ccc1OC | 3060 | 7.74 | -1.14 | – | – | – | – |
| COc1ccccc1-c1cccc(CN(C)C)c1 | 126 | 40.8 | 15.4 | – | – | – | – |
| COc1ccccc1-c1cccc(CN2CCN(c3ccccc3OC)CC2)c1 | – | – | – | – | – | 15 | – |
| COc1ccccc1-c1cc(CN2CCN(c3ccccc3OC)CC2)ccc1Cl | 73 | 91 | -7.72 | 23100 | Active | – | – |
| COc1ccccc1-c1cc(CN2CCN(c3ccccc3OC)CC2)ccc1OC | 79 | 91.6 | -2.42 | 5570 | Active | – | – |
| CNCc1ccc(C)c(-c2ccccc2OC)c1 | 15 | 2.49 | 55.5 | – | – | – | 3200 |
| COc1ccccc1-c1cccc(CN2CCC(C)CC2)c1 | 1040 | 39 | 8.59 | – | – | – | – |
| CNCc1cccc(-c2ccccc2OC)c1 | 226 | -0.87 | 24.5 | – | – | – | – |
| CNCc1ccc(Cl)c(-c2ccccc2OC)c1 | 5.2 | 4.66 | 66.8 | – | – | – | 550 |
| CNCc1cc2c(c(-c3ccccc3OC)c1)OCO2 | 1480 | 8.4 | 13.6 | – | – | – | – |
| COc1ccccc1-c1cc(CN(C)C)cc2c1OCO2 | 772 | 13.5 | 3.97 | – | – | – | – |
| COc1ccccc1-c1cc(CN2CCN(c3ccccc3OC)CC2)ccc1C | 18 | 69.3 | 14 | 6350 | Active | – | – |
